Values quoted from earlier work as cited in patent US7067315B2, “Identification of anti-protozoal agents” (President and Fellows of Harvard College, priority 2001, dated 2006).

Tested on: Apicomplexan parasites
Details: several Apicomplexan parasites; by net actin filament depolymerization

SMILES: C=C1[C@@H](C)[C@H]2[C@H](Cc3ccccc3)NC(=O)[C@]23[C@H](OC(C)=O)/C=C/[C@@](C)(O)C(=O)[C@@H](C)C/C=C/[C@H]3[C@@H]1O [cytochalsin D]
- inhibition of parasite motility and invasion: inhibits parasite motility and invasion
